Test results published in patent US20220106296A1, “CYANOTRIAZOLE COMPOUNDS AND USES THEREOF” (Novartis AG, priority 2018, published 2022).

Assays:
[1] = tested on: intracellular T. cruzi amastigotes; assay: T. cruzi amastigote growth inhibition assay (NIH 3T3 host cells, β-galactosidase readout); type: cell-based; conditions: Trypanosoma cruzi, NIH3T3, read-out: (c) T.c.* IC50
Experimental: NIH 3T3 fibroblast cells (ATCC) were maintained in RPMI-1640 medium (Life Technologies) supplemented with 10% heat-inactivated fetal bovine serum and 100 IU penicillin/100 μg/ml streptomycin at 37° C./5% CO2. T. cruzi Tulahuen parasites constitutively expressing E. coli β-galactosidase were maintained in tissue culture as an infection in NIH 3T3 fibroblast cells. Briefly, 2×10^7 T. cruzi trypomastigotes were used to infect 6×10^5 NIH 3T3 cells growing in T75 CELLSTAR tissue culture flasks and cultured at 37° C./5% CO2 until proliferating intracellular parasites lysed host 3T3 cells and were released into the culture medium (typically 6-7 days). During the infection, the tissue culture medium was changed every two days. Number of T. cruzi trypomastigotes present in 1 ml of medium was determined using a haemocytometer.
To determine compound potency on intracellular T. cruzi amastigotes, NIH 3T3 cells were re-suspended in phenol red-free RPMI-1640 medium containing 3% heat-inactivated fetal bovine serum and 100 IU penicillin/100 μg/ml streptomycin, seeded at 1,000 cells/well (40 μl) in white, clear bottom 384-well plates (Greiner Bio-One), and incubated overnight at 37° C./5% CO2. The following day, 100 nl of each compound in DMSO were transferred to individual plate wells by Echo 555 acoustic liquid handling system. After one hour incubation, 1×10^6 of tissue culture-derived T. cruzi trypomastigotes, in 10 μl of phenol red-free RPMI-1640 medium supplemented with 3% heat-inactivated fetal bovine serum and 100 IU penicillin/100 μg/ml streptomycin were added to each well. Plates were then incubated for 6 days at 37° C./5% CO2. Intracellular T. cruzi parasites were quantified by measuring the activity of parasite-expressed β-galactosidase. Ten microliters of a chromogenic β-galactosidase substrate solution (0.6 mM chlorophenol red-β-D-galactopyranoside/0.6% NP-40 in PBS; both reagents from Calbiochem) were added to each well and incubated for 2 h at room temperature. After incubation, absorption was measured at 570 nm on SpectraMax M2 plate reader (Molecular Devices). Measured absorbance values in wells with compounds were divided by the average absorbance value of the plate DMSO controls, and used for calculation of compound EC50 values as described above.

[2] = tested on: T. b. brucei Lister427 bloodstream form parasites; assay: T. b. brucei growth inhibition assay (CellTiter-Glo, 48 hours); type: cell-based; conditions: Trypanosoma brucei
In short: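 1×10^4 bloodstream-form parasites/well in HMI-9 medium exposed to 10-point, 3-fold compound dilutions for 48 h at 37 °C, 5% CO2. Parasite number quantified as intracellular ATP by CellTiter-Glo luminescence, normalized to DMSO controls for IC50 calculation.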

[3] = tested on: stage I mouse model, hemolymphatic (blood stream) form of human infection; assay: Stage I mouse model of HAT; type: in vivo
From the text: (§1) Based on the favorable in vitro and in vivo pharmacological properties, selected cyanotraizole compounds were chosen for testing in stage I and stage II mice models. The stage I mouse model represents the hemolymphatic (blood stream) form of human infection.

[4] = tested on: stage II mouse model, CNS form of the disease; assay: Stage II mouse model of HAT; type: in vivo
From the text: as §1

[5] = tested on: Leishmania donovani axenic amastigote; assay: Growth inhibition of Leishmania donovani axenic amastigote; type: cell-based; conditions: L. donovani growth inhibition, read-out: (d) L.d* IC50
Experimental: Leishmania donovani axenic amastigote parasites are grown at 37° C., 5% CO2 in media made of RPMI 1640, 4 mM L-glutamine, 20% heat inactivated FBS, 100 units/ml of penicillin and 100 μg/ml of streptomycin, 23 μM Folic Acid, 100 μM Adenosine, 22 mM D-glucose, 25 mM MES. The pH of media is adjusted to 5.5 at 37° C. using HCl. 20 μL of media is first dispensed into 384 well plates and 100 nL of the compounds of invention in DMSO are added to the plate wells. At the same time control compounds and DMSO are added to plates to serve as the positive and negative controls, respectively. 40 μL of parasite culture (9600 parasites) are then added to the plate wells. The plates are then placed into incubators. After 2 day incubation, 20 μL of Cell TiterGlo (Promega) is added to the plate wells. The luminescence signal of each well is measured using the Envision reader (Perkin Elmer). The percentage inhibition of 50%, EC50, is calculated for each of the compounds.

T.b. gambinese STIB930 = assay: T.b. gambiense growth inhibition assay; type: cell-based; conditions: Trypanosoma brucei, read-out: (b) T.b.g* IC50
Experimental: Bloodstream form of T. b. brucei Lister427 strain was obtained from the Genomics Institute of the Novartis Research Foundation. This strain was used for carrying out growth inhibition and kill kinetics assays. T. b. gambiense STIB930 and T. b. rhodesiense STIB900 were obtained from Swiss TPH, were used for carrying out the growth inhibition assays. Bloodstream form of T. b. gambiense and T. b. rhodesiense were also grown in HMI-9 media, described above, but the media was supplemented by 5% human serum and 5% heat-inactivated FBS instead of 10% FBS. To determine compound growth inhibitory potency on T. b. brucei Lister427 bloodstream form parasites, 200 nL of 10-point, 3 fold serially diluted compounds in DMSO were transferred to the wells of white, solid bottom 384-well plates (Greiner Bio-One) by either Echo 555 acoustic liquid handling system or Mosquito. Then, 1×10^4 of T. b. brucei parasites in 40 μL of HMI-9 medium were added to each well, and the plates were incubated for 48 hours at 37° C. in 5% CO2 incubators. Parasite numbers in individual plate wells were determined through quantification of intracellular ATP amount. The CellTiter-Glo luminescent cell viability reagent (Promega) was added to plate wells, and ATP-dependent luminescence signal was measured on Tecan M1000 plate Reader after 30 min incubation. Luminescence values in wells with compounds were divided by the average luminescence value of the plate DMSO controls, and used for calculation of compound IC50 values. Similar assay was also used for determining IC50 against T.b. gambinese STIB930 and T. b. rhodesiense STIB900 strains, but the initial concentration of cells used was 3×10^4 parasites/ml.

SMILES | IC50 [1] [nM] | IC50 [2] [nM] | cure in stage I mouse model ([3]; 10 mg/kg QD) | cure in stage II mouse model ([4]; 10 mg/kg QD) | IC50 [5] [nM] | IC50 (T.b. gambinese STIB930) [nM] | cure in stage I mouse model ([3]; 10 mg/kg BID) | cure in stage II mouse model ([4]; 100 mg/kg QD) | cure in stage II mouse model ([4]; 15 mg/kg QD)
N#Cc1ncn(CC(=O)N2Cc3ccc(-c4cc(F)cnc4C(F)(F)F)cc3C2)n1 [Example 8, 1-(2-(5-(5-fluoro-2-(trifluoromethyl)pyridin-3-yl)isoindolin-2-yl)-2-oxoethyl)-1H-1,2,4-triazole-3-carbonitrile] | 100 to 1000 | 100 to 1000 | complete cure without relapse | complete cure without relapse |  |  |  |  | 
N#Cc1ncn(CC(=O)N2Cc3ccc(-c4ccc(F)cc4C(F)(F)F)cc3C2)n1 [Example 29, 1-(2-(5-(4-fluoro-2-(trifluoromethyl)phenyl)isoindolin-2-yl)-2-oxoethyl)-1H-1,2,4-triazole-3-carbonitrile] | < 100 | < 100 |  |  | ≥ 1000 | 100 to 1000 | complete cure without relapse | complete cure without relapse | 
N#Cc1ncn(CC(=O)N2Cc3ccc(-c4cc(F)c(F)cc4Cl)cc3C2)n1 [Example 30, 1-(2-(5-(2-chloro-4,5-difluorophenyl)isoindolin-2-yl)-2-oxoethyl)-1H-1,2,4-triazole-3-carbonitrile] | < 100 | < 100 |  |  | ≥ 1000 | 100 to 1000 |  |  | 
COc1ccc(-c2ccc3c(c2)CN(C(=O)Cn2cnc(C#N)n2)C3)c(C(F)(F)F)c1 [Example 31, 1-(2-(5-(4-methoxy-2-(trifluoromethyl)phenyl)isoindolin-2-yl)-2-oxoethyl)-1H-1,2,4-triazole-3-carbonitrile] | < 100 | < 100 |  |  | ≥ 1000 | 100 to 1000 |  |  | 
N#Cc1ncn(CC(=O)N2Cc3ccc(-c4ccccc4Cl)cc3C2)n1 [Example 33, 1-(2-(5-(2-chlorophenyl)isoindolin-2-yl)-2-oxoethyl)-1H-1,2,4-triazole-3-carbonitrile] | < 100 | 100 to 1000 |  |  | ≥ 1000 | 100 to 1000 |  |  | 
COc1ccc(-c2ccc3c(c2)CN(C(=O)Cn2cnc(C#N)n2)C3)c(Cl)c1 [Example 34, 1-(2-(5-(2-chloro-4-methoxyphenyl)isoindolin-2-yl)-2-oxoethyl)-1H-1,2,4-triazole-3-carbonitrile] | < 100 | 100 to 1000 |  |  | ≥ 1000 | 100 to 1000 |  |  | 
N#Cc1ncn(CC(=O)N2Cc3ccc(-c4ccc(F)cc4Cl)cc3C2)n1 [Example 37, 1-(2-(5-(2-chloro-4-fluorophenyl)isoindolin-2-yl)-2-oxoethyl)-1H-1,2,4-triazole-3-carbonitrile] | < 100 | 100 to 1000 |  |  |  | 100 to 1000 |  |  | 
N#Cc1ncn(CC(=O)N2Cc3ccc(-c4ccc(Cl)cc4Cl)cc3C2)n1 [Example 38, 1-(2-(5-(2,4-dichlorophenyl)isoindolin-2-yl)-2-oxoethyl)-1H-1,2,4-triazole-3-carbonitrile] | < 100 | 100 to 1000 |  |  | ≥ 1000 | 100 to 1000 |  |  | 
N#Cc1ccc(F)c(-c2ccc3c(c2)CN(C(=O)Cn2cnc(C#N)n2)C3)c1 [Example 41, 1-(2-(5-(5-cyano-2-fluorophenyl)isoindolin-2-yl)-2-oxoethyl)-1H-1,2,4-triazole-3-carbonitrile] | < 100 | 100 to 1000 |  |  | ≥ 1000 | 100 to 1000 |  |  | 
N#Cc1ncn(CC(=O)N2Cc3ccc(-c4cc(F)c(F)cc4F)cc3C2)n1 [Example 45, 1-(2-oxo-2-(5-(2,4,5-trifluorophenyl)isoindolin-2-yl)ethyl)-1H-1,2,4-triazole-3-carbonitrile] | 100 to 1000 | 100 to 1000 |  |  |  | 100 to 1000 |  |  | 
N#Cc1ncn(CC(=O)N2Cc3ccc(-c4cccnc4C(F)(F)F)cc3C2)n1 [Example 85, 1-(2-oxo-2-(5-(2-(trifluoromethyl)pyridin-3-yl)isoindolin-2-yl)ethyl)-1H-1,2,4-triazole-3-carbonitrile] | < 100 | < 100 | complete cure without relapse |  | ≥ 1000 | < 100 |  |  | complete cure without relapse
